Where “and” joins values, the source holds several entries; their conditions need not be identical. Equal values may be shown once.
How the values were obtained:
Type in all cases: in vivo, rat
interstitial collagen = test: Assay C: interstitial collagen volume fraction (Picrosirius Red image analysis); conditions: for Interstitial Collagen Volume Fraction: Table 9.14, 7-day protocol; for Collagen Volume Fraction (%), Mean: group mean; for ICVF (interstitial collagen volume fraction): eplerenone 100 mg/kg/day
Procedure: The procedure of Assay B was expanded upon in a further study. […] Myocardial tissue from animals in each treatment group was examined after 7, 14, or 30 days of treatment. […] Lesions were preceded by the expression and progressive upregulation of proinflammatory molecules. […] Prior to surgery the animals were individually weighed and placed in one of the following groups: […] Potassium chloride supplementation was added to the saline solution in order to prevent the potential hypokalemia associated with aldosterone excess. […] Louis, Mo.) was inserted subcutaneously at the nape of the neck. Aldosterone was administered at a dose of […]. […] Animals were sacrificed from each group (n=8-13) after 7, 14, or 30 days of treatment. The equatorial regions of the heart were routinely processed into paraffin with an automated tissue processor (Hypercenter XP, Shandon/Lipshaw Inc., Pittsburgh, Pa.) and embedded into fresh paraffin apical side down (Shandon Embedding Center, Shandon/Lipshaw Inc.). […] Ten m sections were stained with the collagen specific stain, Picrosirius Red F3BA (Saturated Picric Acid (Sigma Chemical, St. […] Waterbury, Conn.) (6). Mounted tissues were hydrated with water. […] Slides were coverslipped with #1 cover glass using Permount Histological Mounting Media (Fisher Scientific). Two slides mounted with 5 m sections were cut for each animal. One slide was processed for H&E staining and one for Periodic Acid Schiff (PAS) staining. The H&E and PAS were used for pathological scoring of the hearts. Picrosirius Red F3BA stained slides were used to quantify interstitial collagen with a Videometric 150 Image Analysis System (Oncor Inc., Gaitherburg, Md.). […] Garden City, N.Y.) attached to a Nikon Optiphot microscope (Nikon Inc.). A Toshiba 3 CCD Color Video Camera (Model#[…] Corp. Japan) relayed the images in RGB format from the microscope to a 386 computer with a […] video board. The […] video board/[…] software application (Oncor Inc.) converted RGB images to HIS (Hue, Intensity, Saturation) format for display and analysis on a Sony Trinitron Color Video Monitor (Model#PVM-1342Q, Sony Corp, Tokyo, Japan) at a magnification of 305×. […] The […] application then measured only pixels which fell into thresholding limits. The system was calibrated with a micrometer scale (EM Sciences, FT. Washington, Pa. 19034), which allowed data to be expressed in mm^2 or m^2.

[1] = test system: Transforming growth factor beta 1; test: Assay C: TGF beta 1 mRNA in left ventricle (TaqMan); conditions: for TGF-β, Mean: group mean; for TGF-β: individual rats
Procedure: (§1) The procedure of Assay B was expanded upon in a further study. […] Myocardial tissue from animals in each treatment group was examined after 7, 14, or 30 days of treatment.
(§2) Potassium chloride supplementation was added to the saline solution in order to prevent the potential hypokalemia associated with aldosterone excess.
At the time of the surgery, an Alzet 2002 osmotic minipump (Alza Corp., Palo Alto, Calif.) containing either vehicle (9% ethanol/87% propylene glycol/4% dH2O) or 1.0 mg/mL d-aldosterone (Sigma Chemical, St. Louis, Mo.) was inserted subcutaneously at the nape of the neck. Aldosterone was administered at a dose of 0.75 g/hour. […] Animals were sacrificed from each group (n=8-13) after 7, 14, or 30 days of treatment.
Following exsanguination, hearts and kidneys were isolated, removed, rinsed in cold phosphate-buffered saline, and blotted dry. Kidneys were immediately bifurcated through the long axis with a razor blade and placed in 10% neutral buffered formalin (NBF, Richard-Allen Scientific, Kalamazoo, Mich.). For the hearts, the right ventricle (RV) was cut away from the left ventricle (LV), both ventricles were weighed using a Mettler AE163 balance (Mettler-Toledo, Inc., Hightstown, N.J.), and the RV was placed in 10% NBF. A 2 mm coronal slab of the LV apex was removed and frozen with dry ice/isopentane for analysis of gene expression and the remaining portion of the LV was placed in 10% NBF for fixation. Final wet trimming was completed after 3-4 days fixation where a second 2 mm coronal slab was removed for hydroxyproline analysis and a third 2 mm slab was removed from the equatorial region for histology.
(§3) The fluorogenic 5′-nuclease assay (TaqMan PCR) using Applied Biosystems' 7700 Sequence Detection System (Applied Biosystems, Foster City, Calif.) allowed for real time detection/quantitation of a specific gene by monitoring the increase in fluorescence of a gene-specific, dye-labeled oligonucleotide probe. Probes for target and reference genes were labeled at the 5′-end with a 6-carboxyfluorescein (6FAM) reporter dye and at the 3′-end with a 6-carboxy-N,N,N′,N′-tetramethylrhodamine (TAMRA) quencher dye. When the probe was annealed to the target gene, fluorescence of 6FAM was prevented by the close proximity of TAMRA. The exonuclease activity of Taq polymerase released the dyes from the oligonucleotide probe by displacing the probe from the target sequence resulting in fluorescence excitation in direct proportion to the amount of target message present. Data analysis was performed using the Sequence Detection System software from Applied Biosystems.
Primers and probes were designed using Oligo Primer Analysis Software, Version 5.0 (National Biosciences Inc. (NBI)-Wojciech Rychlik, Cascade, Colo.). Primers were synthesized by Life Technologies (Grand Island, N.Y.) and probes were synthesized by Applied Biosystems. Primer/probe sets were designed from known sequences of rat genes to be analyzed. All target gene values were normalized to a reference gene, constitutively expressed cyclophilin. Primer/probe sets sequences can be found in Table 8
RNA was extracted from frozen (−70° C.) left ventricle (LV) tissue (approximately 10-20 mg) using 1.5 mL RNA-STAT 60 according to manufacturer's instructions (Leedo Medical Laboratories, Inc., Houston, Tex.). Briefly, tissues were homogenized using a tissue homogenizer equipped with a 5 mm probe (Ultra-Turrax T8 Homogenizer, IKA Works, Inc. Wilmington, N.C.). Following homogenization, an equal volume of molecular grade chloroform (Sigma Chemical Co., St. Louis, Mo.) was incubated with periodic mixing for 10 min at room temperature. Samples were centrifuged at 12,000 g for 10 min and RNA was precipitated from the top layer by adding an equal volume of molecular grade isopropanol (Sigma Chemical Co.) followed by an overnight incubation at −80° C.

[2] = test system: Atrial natriuretic factor (ANP); test: Assay C: ANP mRNA in left ventricle (TaqMan)
Procedure: as §1, §2
At the time of the surgery, an Alzet 2002 osmotic minipump (Alza Corp., Palo Alto, Calif.) containing either vehicle (9% ethanol/87% propylene glycol/4% dH2O) or 1.0 mg/mL d-aldosterone (Sigma Chemical, St. Louis, Mo.) was inserted subcutaneously at the nape of the neck. Aldosterone was administered at a dose of 0.75 g/hour. […] Animals were sacrificed from each group (n=8-13) after 7, 14, or 30 days of treatment. […]
as §3, with “Probes for target and reference genes were labeled at the 5′-end with a 6-carboxyfluorescein (6FAM) reporter dye and at the 3′-end with a 6-carboxy-N,N,N′,N′-tetramethylrhodamine (TAMRA) quencher dye.” left out, “Data analysis was performed using the Sequence Detection System software from Applied Biosystems.” left out

Structure (SMILES) | Interstitial Collagen Volume Fraction (interstitial collagen; group Mean) | Interstitial Collagen Volume Fraction (interstitial collagen; individual rats, listed as Aldosterone + salt) | Collagen Volume Fraction (%), Mean (interstitial collagen; 14 days of treatment) | Collagen Volume Fraction (%), Mean (interstitial collagen; 30 days of treatment) | ICVF (interstitial collagen volume fraction) (interstitial collagen; mean ± SEM after 7 days of treatment) | ICVF (interstitial collagen volume fraction) (interstitial collagen; mean ± SEM after 14 days of treatment) | ICVF (interstitial collagen volume fraction) (interstitial collagen; mean ± SEM after 30 days of treatment) | TGF-β, Mean ([1]; 30 days of treatment) | TGF-β ([1]; 7 days of treatment, listed as Aldosterone + salt) | TGF-β ([1]; 14 days of treatment, listed as Aldosterone + salt) | TGF-β ([1]; 30 days of treatment, listed as Aldosterone + salt) | ANP mRNA upregulation ([2]; after 30 days of treatment) | ANP mRNA ([2]; mean ± SEM after 30 days of treatment, relative to cyclophilin expression, eplerenone 100 mg/kg/day) | TGF-β, Mean ([1]; 7 days of treatment) | TGF-β, Mean ([1]; 14 days of treatment) | TGF-β ([1]; 7 days of treatment, listed as Eplerenone + aldosterone + salt) | TGF-β ([1]; 14 days of treatment, listed as Eplerenone + aldosterone + salt) | TGF-β ([1]; 30 days of treatment, listed as Eplerenone + aldosterone + salt)
C[C@]12CCC(=O)C=C1CC[C@@H]1[C@@H]2[C@@H](O)C[C@]2(C=O)[C@@H](C(=O)CO)CC[C@@H]12 [aldosterone] | 5.6% | 3.2% and 6.5% (2×) and 6.1% and 6.9% and 4.4% and 3.1% | 5.1% | 7.9% | 5.6 ± 0.6% | 5.1 ± 0.5% | 7.9 ± 1.0% | 1.33 AU | 0.98 AU and 1.47 AU and 1.21 AU | 0.55 AU and 1.27 AU and 0.56 AU | 1.27 AU and 1.20 AU and 0.83 AU and 0.54 AU | – | – | – | – | – | – | –
COC(=O)[C@@H]1CC2=CC(=O)CC[C@]2(C)[C@@]23O[C@@H]2C[C@@]2(C)[C@@H](CC[C@@]24CCC(=O)O4)[C@H]13 [eplerenone, Pregn-4-ene-7,21-dicarboxylic acid, 9,11-epoxy-17-hydroxy-3-oxo-, γ-lactone, methyl ester, (7α, 11α, 17β) -] | – | – | 4.5% | 6.2% | – | – | – | 1.32 AU | – | – | – | significantly reduced | 9.20 ± 2.44 AU | 0.99 AU | 1.26 AU | 0.80 AU (2×) and 0.81 AU and 0.51 AU and 0.61 AU and 0.84 AU | 0.58 AU and 0.62 AU and 1.04 AU and 0.71 AU and 1.21 AU and 2.41 AU | 1.00 AU and 1.40 AU and 0.96 AU and 1.93 AU and 0.89 AU

— patent US20030162759A1, “Aldosterone blocker therapy to prevent or treat inflammation-related disorders” (priority 2000, published 2003)
